This assay addresses T1, ATM (Homo sapiens, UniProt Q13315).
T1 construct: detecting phosphorylation of Chk2 in a human non-small cell lung cancer cell line NCI-H460 (ATCC company); host or cells: NCI-H460 human non-small cell lung cancer cells
The experiment in a line: ATM inhibition test (phosphorylation of Chk2 generated by ionizing radiation, AlphaScreen SureFire). The following applies: phosphorylated Chk2 in NCI-H460 cells, ionizing radiation 8Gy, 1 hour after test compound treatment; read-out: ATM inhibitory activity. The assay is classed as cell-based. In outline:
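Human NCI-H460 lung cancer cells were treated with compound for 1 h, then irradiated at 8Gy and incubated 1 h at 37° C. Phospho-Chk2 was quantified by AlphaScreen SureFire; inhibition % was normalised between irradiated untreated and non-irradiated untreated wells.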
T1 sequence (Q13315 whole entry): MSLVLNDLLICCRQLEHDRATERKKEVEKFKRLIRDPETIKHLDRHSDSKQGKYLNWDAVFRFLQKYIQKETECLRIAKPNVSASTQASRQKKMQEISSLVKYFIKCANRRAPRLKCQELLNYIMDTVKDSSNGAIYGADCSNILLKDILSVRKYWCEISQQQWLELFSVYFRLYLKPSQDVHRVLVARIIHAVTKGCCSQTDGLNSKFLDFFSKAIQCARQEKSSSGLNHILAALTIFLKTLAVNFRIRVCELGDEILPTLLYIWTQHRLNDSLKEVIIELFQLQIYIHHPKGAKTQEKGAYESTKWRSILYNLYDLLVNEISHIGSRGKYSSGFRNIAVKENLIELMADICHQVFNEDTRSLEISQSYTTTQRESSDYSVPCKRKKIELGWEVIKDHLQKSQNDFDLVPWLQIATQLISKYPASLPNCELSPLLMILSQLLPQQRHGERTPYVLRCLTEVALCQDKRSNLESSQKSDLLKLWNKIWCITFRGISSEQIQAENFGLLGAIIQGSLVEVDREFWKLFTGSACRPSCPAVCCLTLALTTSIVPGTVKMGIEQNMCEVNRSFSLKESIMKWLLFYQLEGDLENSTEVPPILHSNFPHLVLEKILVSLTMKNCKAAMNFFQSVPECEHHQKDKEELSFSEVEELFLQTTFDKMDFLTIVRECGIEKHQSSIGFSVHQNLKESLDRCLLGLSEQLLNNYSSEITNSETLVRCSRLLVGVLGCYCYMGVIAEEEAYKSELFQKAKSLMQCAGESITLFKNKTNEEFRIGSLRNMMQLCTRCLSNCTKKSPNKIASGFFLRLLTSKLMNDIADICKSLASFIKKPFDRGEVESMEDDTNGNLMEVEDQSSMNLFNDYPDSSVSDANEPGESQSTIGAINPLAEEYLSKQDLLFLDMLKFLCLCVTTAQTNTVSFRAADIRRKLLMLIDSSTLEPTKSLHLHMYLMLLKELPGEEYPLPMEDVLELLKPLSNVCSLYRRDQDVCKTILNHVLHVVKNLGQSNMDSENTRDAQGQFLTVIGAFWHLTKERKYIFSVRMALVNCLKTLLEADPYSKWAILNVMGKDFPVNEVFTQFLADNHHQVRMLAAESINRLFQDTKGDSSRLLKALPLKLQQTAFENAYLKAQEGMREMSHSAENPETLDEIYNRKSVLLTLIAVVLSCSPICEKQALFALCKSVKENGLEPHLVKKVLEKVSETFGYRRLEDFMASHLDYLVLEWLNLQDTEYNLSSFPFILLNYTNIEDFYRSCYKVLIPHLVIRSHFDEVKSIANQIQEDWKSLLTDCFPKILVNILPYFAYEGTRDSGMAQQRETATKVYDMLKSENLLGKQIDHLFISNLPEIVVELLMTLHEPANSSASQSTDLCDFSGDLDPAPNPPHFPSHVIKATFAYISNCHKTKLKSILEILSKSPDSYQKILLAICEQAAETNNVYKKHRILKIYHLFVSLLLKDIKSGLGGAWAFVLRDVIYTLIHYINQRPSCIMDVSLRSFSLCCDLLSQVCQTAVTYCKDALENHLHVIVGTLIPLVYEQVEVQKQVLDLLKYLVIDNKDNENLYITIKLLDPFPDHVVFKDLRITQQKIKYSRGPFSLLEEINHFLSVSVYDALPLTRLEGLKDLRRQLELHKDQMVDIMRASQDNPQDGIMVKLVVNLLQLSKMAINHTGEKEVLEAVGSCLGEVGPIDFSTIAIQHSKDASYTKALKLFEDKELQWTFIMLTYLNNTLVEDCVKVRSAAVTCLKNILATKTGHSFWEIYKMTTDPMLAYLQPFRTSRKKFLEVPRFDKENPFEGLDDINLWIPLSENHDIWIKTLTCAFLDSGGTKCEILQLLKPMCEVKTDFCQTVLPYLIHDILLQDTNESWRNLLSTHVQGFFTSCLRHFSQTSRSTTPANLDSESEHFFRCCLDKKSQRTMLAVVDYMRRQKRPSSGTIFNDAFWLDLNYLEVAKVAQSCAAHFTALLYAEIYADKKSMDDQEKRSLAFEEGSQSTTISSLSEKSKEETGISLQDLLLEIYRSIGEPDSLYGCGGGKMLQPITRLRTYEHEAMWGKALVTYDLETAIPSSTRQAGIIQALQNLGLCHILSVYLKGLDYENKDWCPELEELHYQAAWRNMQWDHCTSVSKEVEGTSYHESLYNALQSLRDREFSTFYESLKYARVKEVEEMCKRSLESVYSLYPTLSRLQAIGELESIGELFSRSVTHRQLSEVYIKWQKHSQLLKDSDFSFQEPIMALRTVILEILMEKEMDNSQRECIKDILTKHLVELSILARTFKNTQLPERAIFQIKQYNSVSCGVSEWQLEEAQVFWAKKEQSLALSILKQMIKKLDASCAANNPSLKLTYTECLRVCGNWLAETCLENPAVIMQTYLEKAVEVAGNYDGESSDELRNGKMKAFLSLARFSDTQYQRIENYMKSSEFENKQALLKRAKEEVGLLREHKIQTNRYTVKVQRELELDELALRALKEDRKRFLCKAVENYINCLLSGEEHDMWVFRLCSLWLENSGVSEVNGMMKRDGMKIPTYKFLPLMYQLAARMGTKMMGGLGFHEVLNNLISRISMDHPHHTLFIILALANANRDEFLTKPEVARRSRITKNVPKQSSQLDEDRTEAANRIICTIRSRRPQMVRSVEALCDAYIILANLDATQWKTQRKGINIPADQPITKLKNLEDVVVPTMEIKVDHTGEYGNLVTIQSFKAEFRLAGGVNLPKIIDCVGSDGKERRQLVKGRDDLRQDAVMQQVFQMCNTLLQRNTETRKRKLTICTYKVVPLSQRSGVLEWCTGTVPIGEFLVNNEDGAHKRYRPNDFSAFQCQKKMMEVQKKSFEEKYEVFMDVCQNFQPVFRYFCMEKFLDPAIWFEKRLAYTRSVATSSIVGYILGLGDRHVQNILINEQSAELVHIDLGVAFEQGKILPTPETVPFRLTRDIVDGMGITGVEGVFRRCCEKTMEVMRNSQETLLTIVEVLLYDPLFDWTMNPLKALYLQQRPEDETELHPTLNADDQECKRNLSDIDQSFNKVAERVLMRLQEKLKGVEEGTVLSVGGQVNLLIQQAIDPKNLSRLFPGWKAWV
Consider `O=c1cc(N2CCOCC2)cc(-c2cccc3c2Sc2ccc(NC4CCC(N5CCOCC5)CC4)cc2S3)[nH]1` (stereo not drawn) [Example 1-36-1, 4-Morpholino-6-(7-((4-morpholinocyclohexyl)amino)thianthren-1-yl)pyridin-2(1H)-one], for which the IC50 lay in the range of 100 to 500 nM.
In the case of `COc1cc(CNc2ccc3c(c2)Sc2cccc(-c4cc(N5CCOCC5)cc(=O)[nH]4)c2S3)cnc1OC` [Example 1-12-7, 6-(7-(((5,6-Dimethoxypyridin-3-yl)methyl)amino)thianthren-1-yl)-4-morpholino pyridin-2(1H)-one], the IC50 lay in the range of 100 to 500 nM.
The result for `COc1ccc(CNc2ccc3c(c2)Cc2cc(C)cc(-c4cc(N5CCOCC5)cc(=O)[nH]4)c2O3)cn1` [Example 2-49-1, 6-(7-(((6-Methoxypyridin-3-yl)methyl)amino)-2-methyl-9H-xanthen-4-yl)-4-morpholinopyridin-2(1H)-one] reads 500 to 2000 nM; that for `CCCCN1CCCC(Nc2ccc3c(c2)Cc2cccc(-c4cc(N5CCOCC5)cc(=O)[nH]4)c2O3)C1` (stereo not drawn) [Example 2-19-4, 6-(7-((1-Butylpiperidin-3-yl)amino)-9H-xanthen-4-yl)-4-morpholinopyridin-2(1H)-one], 100 to 500 nM; that for `O=C(Nc1ncc(CNc2ccc3c(c2)Sc2cccc(-c4cc(N5CCOCC5)cc(=O)[nH]4)c2S3)cn1)N1CCCC1` [Example 1-12-48, N-(5-(((6-(4-Morpholino-6-oxo-1,6-dihydropyridin-2-yl)thianthren-2-yl)amino)methyl)pyrimidin-2-yl)pyrrolidine-1-car-boxamide], 100 to 500 nM.
The result for `CC(CN1CCOCC1)C(=O)Nc1ccc2c(c1)Sc1cccc(-c3cc(N4CCOCC4)cc(=O)[nH]3)c1S2` (stereo not drawn) [Example 8-3, 2-Methyl-3-morpholino-N-(6-(4-morpholino-6-oxo-1,6-dihydropyridin-2-yl)thianthren-2-yl)propanamide] reads 500 to 2000 nM; that for `O=c1cc(N2CCOCC2)cc(-c2cccc3c2Sc2ccc(N[C@H](COCc4ccccc4)CN4CCOCC4)cc2S3)[nH]1` [Example 1-59-2, (S)-6-(7-((1-(benzyloxy)-3-morpholinopropan-2-yl)amino)thianthren-1-yl)-4-morpholinopyridin-2(1H)-one], 100 to 500 nM; that for `O=c1cc(N2CCOCC2)cc(-c2cccc3c2Oc2ccc(NCc4cncc(OC(F)F)c4)cc2C3)[nH]1` [Example 2-14-6, 6-(7-(((5-(Difluoromethoxy)pyridin-3-yl)methyl)amino)-9H-xanthen-4-yl)-4-morpholino pyridin-2(1H)-one], 100 to 500 nM.
Turning to `CN(C)CCN1CCC(Nc2ccc3c(c2)Sc2cccc(-c4cc(N5CCOCC5)cc(=O)[nH]4)c2S3)CC1` [Example 1-29-2, 6-(7-((1-(2-(Dimethylamino)ethyl)piperidin-4-yl)amino)thianthren-1-yl)-4-morpholinopyridin-2(1H)-one], the IC50 was in the range of 100 to 500 nM.
The result for `CCC(Nc1ccc2c(c1)Sc1cccc(-c3cc(N4CCOCC4)cc(=O)[nH]3)c1O2)c1cncc(OC)c1` (stereo not drawn) [Example 4-4-27, 6-(8-((1-(5-Methoxypyridin-3-yl)propyl)amino)phenoxathiin-4-yl)-4-morpholino pyridin-2(1 H)-one] reads 100 to 500 nM; that for `Cc1ccc(C(Nc2ccc3c(c2)Sc2cccc(-c4cc(N5CCOCC5)cc(=O)[nH]4)c2S3)C2CN(CCO)CCO2)nc1` (racemic) [Example 1-57-1, 6-(7-(((4-(2-hydroxyethyl)morpholin-2-yl)(5-methylpyridin-2-yl)methyl)amino)thianthren-1-yl)-4-morpholinopyridin-2(1H)-one], below 100 nM.
As to `Cn1cc(-c2cncc(CNc3ccc4c(c3)Cc3cccc(-c5cc(N6CCOCC6)cc(=O)[nH]5)c3O4)c2)cn1` [Example 2-2-49, 6-(7-(((5-(1-Methyl-1H-pyrazol-4-yl)pyridin-3-yl)methyl)amino)-9H-xanthen-4-yl)-4-morpholino pyridin-2(1H)-one], the IC50 is 100 to 500 nM.
Next, `O=c1cc(N2CCOCC2)cc(-c2cccc3c2Oc2ccc(NCc4cccc(Cl)n4)cc2C3)[nH]1` [Example 2-14-2, 6-(7-(((6-Chloropyridin-2-yl)methyl)amino)-9H-xanthen-4-yl)-4-morpholino pyridin-2(1H)-one]: 100 to 500 nM.
Turning to `O=c1cc(N2CCOCC2)cc(-c2cccc3c2Oc2ccc(NC4CCN(CCC5CCCCC5)CC4)cc2C3)[nH]1` [Example 2-30-5, 6-(7-((1-(2-Cyclohexylethyl)piperidin-4-yl)amino)-9H-xanthen-4-yl)-4-morpholino pyridin-2 (1H)-one], the IC50 was in the range of 500 to 2000 nM.
Next, `COc1ccc(CCN2CCC(Nc3ccc4c(c3)Sc3cccc(-c5cc(N6CCOCC6)cc(=O)[nH]5)c3S4)CC2)cc1` [Example 1-27, 6-(7-((1-(4-methoxyphenethyl)piperidin-4-yl)amino)thianthren-1-yl)-4-morpholinopyridin-2(1H)-one]: 100 to 500 nM; `O=c1cc(N2CCOCC2)cc(-c2cccc3c2Oc2ccc(NCc4ccoc4)cc2C3)[nH]1` [Example 2-14-34, 6-(7-((Furan-3-ylmethyl)amino)-9H-xanthen-4-yl)-4-morpholino pyridin-2(1H)-one]: 100 to 500 nM.
For `Cc1cnc(C(CCN(C)C)Nc2ccc3c(c2)Sc2cccc(-c4cc(N5CCOCC5)cc(=O)[nH]4)c2O3)cn1` (single isomer, unassigned) [Example 10-7, 6-(8-((3-(Dimethylamino)-1-(5-methylpyrazin-2-yl)propyl)amino)phenoxathiin-4-yl)-4-morpholinopyridin-2(1H)-one], the IC50 was below 100 nM.
Next, `CC(Nc1ccc2c(c1)Sc1cccc(-c3cc(N4CCOCC4)cc(=O)[nH]3)c1S2)c1ncc(CO)cn1` (single isomer, unassigned) [Example 1-12-142-2, 6-(7-((1-(5-(hydroxymethyl)pyrimidin-2-yl)ethyl)amino)thianthren-1-yl)-4-morpholinopyridin-2(1H)-one]: 100 to 500 nM; `CCN(CC)CC(Nc1ccc2c(c1)Sc1cccc(-c3cc(N4CCOCC4)cc(=O)[nH]3)c1S2)c1cnc(C)cn1` (stereo not drawn) [Example 1-33, 6-(7-((2-(diethylamino)-1-(5-methylpyrazin-2-yl)ethyl)amino)thianthren-1-yl)-4-morpholinopyridin-2(1H)-one]: 100 to 500 nM; `CC(CNc1ccc2c(c1)Sc1cccc(-c3cc(N4CCOCC4)cc(=O)[nH]3)c1S2)N1CCOCC1` (single isomer, unassigned) [Example 1-9-2-2, 4-morpholino-6-(7-((2-morpholinopropyl)amino)thianthren-1-yl)pyridin-2(1H)-one]: 100 to 500 nM.
For `COCCCN1CCC(Nc2ccc3c(c2)Cc2cccc(-c4cc(N5CCOCC5)cc(=O)[nH]4)c2O3)CC1` [Example 2-30-15, 6-(7-((1-(3-Methoxypropyl)piperidin-4-yl)amino)-9H-xanthen-4-yl)-4-morpholino pyridin-2 (1H)-one], the IC50 fell in the range of 500 to 2000 nM.
Next, `COc1ccc(CCN2CCC(Nc3ccc4c(c3)Cc3ccc(F)c(-c5cc(N6CCOCC6)cc(=O)[nH]5)c3O4)CC2)cc1` [Example 2-47, 6-(3-Fluoro-7-((1-(4-methoxyphenethyl)piperidin-4-yl)amino)-9H-xanthen-4-yl)-4-morpholinopyridin-2(1H)-one]: 100 to 500 nM; `CC(CN1CCN(Cc2ccncc2)CC1)Nc1ccc2c(c1)Sc1cccc(-c3cc(N4CCOCC4)cc(=O)[nH]3)c1S2` (stereo not drawn) [Example 1-15-4, 4-Morpholino-6-(7-((1-(4-(pyridin-4-ylmethyl)piperazin-1-yl)propan-2-yl)amino)thianthren-1-yl)pyridin-2(1H)-one]: 100 to 500 nM; `COCC[C@H](CN1CCOCC1)Nc1ccc2c(c1)Sc1cccc(-c3cc(N4CCOCC4)cc(=O)[nH]3)c1S2` [Example 1-59-1, (R)-6-(7-((4-methoxy-1-morpholinobutan-2-yl)amino)thianthren-1-yl)-4-morpholinopyridin-2(1H)-one]: below 100 nM.
Next, `COc1cccc(C(C)Nc2ccc3c(c2)Cc2cccc(-c4cc(N5CCOCC5)cc(=O)[nH]4)c2O3)n1` (stereo not drawn) [Example 2-14-30, 6-(7-((1-(6-Methoxypyridin-2-yl)ethyl)amino)-9H-xanthen-4-yl)-4-morpholine pyridin-2(1H)-one]: 100 to 500 nM.
On to `O=c1cc(N2CCOCC2)cc(-c2cccc3c2Sc2ccc(N[C@@H]4COC[C@H]4N4CCOCC4)cc2S3)[nH]1` (relative stereo) [Example 1-60, Trans-4-morpholino-6-(7-((4-morpholinotetrahydrofuran-3-yl)amino)thianthren-1-yl)pyridin-2(1H)-one], for which the IC50 is below 100 nM.
Next, `Cc1cnc(C(CF)Nc2ccc3c(c2)Cc2cccc(-c4cc(N5CCOCC5)cc(=O)[nH]4)c2O3)nc1` (stereo not drawn) [Example 2-14-83, 6-(7-((2-Fluoro-1-(5-methylpyrimidin-2-yl)ethyl)amino)-9H-xanthen-4-yl)-4-morpholino pyridin-2(1H)-one]: 100 to 500 nM; `CC(CN1CCN(C)CC1)Nc1ccc2c(c1)Sc1cccc(-c3cc(N4CCOCC4)cc(=O)[nH]3)c1S2` (single isomer, unassigned) [Example 1-13-3-3, 6-(7-((1-(4-methylpiperazin-1-yl)propan-2-yl)amino)thianthren-1-yl)-4-morpholinopyridin-2(1H)-one]: 100 to 500 nM.
The result for `CCNc1cncc(CNc2ccc3c(c2)Cc2cccc(-c4cc(N5CCOCC5)cc(=O)[nH]4)c2O3)c1` [Example 2-6-1, 6-(7-(((5-(ethylamino)pyridin-3-yl)methyl)amino)-9H-xanthen-4-yl)-4-morpholinopyridin-2(1H)-one] reads 100 to 500 nM; that for `Cc1ccnc(C(C)Nc2ccc3c(c2)Cc2ccnc(-c4cc(N5CCOCC5)cc(=O)[nH]4)c2O3)c1` (stereo not drawn) [Example 2-42-5, 6-(7-((1-(4-Methylpyridin-2-yl)ethyl)amino)-5H-chromeno[2,3-c]pyridin-1-yl)-4-morpholinopyridin-2(1H)-one], 100 to 500 nM.
